pIC50: −log10 of the molar value.
Test system: Aβ42
Test: In vitro cell screening assay; quantification of Aβ (1-42) peptide by sandwich ELISA
Assay type: cell-based
Conditions: Human neuroglioma H4 cells stably expressing human wild type APP751; compounds 0.003-10 μM, incubated overnight (16-18 h); Aβ42 in supernatant by sandwich ELISA; normalized to DMSO and DAPT; read-out: Aβ42 H4 Prot Fre IC50
Description: Human neuroglioma H4 cells were transfected with a pcDNA3.1 plasmid expressing human wild type APP751 cDNA and a stable cell line was generated using G418 selection. Cells were plated at 15,000 cells/well in Costar 96-well plates and placed at 37° C. and 5% CO2. Six hours after plating, cells were washed three times with Pro293™ chemically defined medium, followed by addition of compounds (0.003-10 μM, final DMSO concentration of 0.33%). Plates were incubated overnight (16-18 h) and supernatant was removed for quantification of Aβ peptides by sandwich ELISA. Cytotoxicity was evaluated using Cell-Titer 96W AQueous One Solution Cell Proliferation Assay according to the manufacturer's protocol.
Aβ peptide levels were quantified by sandwich ELISA. 96-well plates were coated with C-terminal specific Aβ antibodies recognizing either Aβ37, Aβ38, Aβ40, Aβ42, Aβ43 or a N-terminal specific Aβ antibody to detect Aβ 1-x. Plates were then blocked overnight at 4° C. with 1% bovine serum albumin (BSA) in PBS-T. Plates were washed and 100 μl of cultured cell supernatant or synthetic Aβ peptide standards and a detection antibody (4G8-HRP) were applied to the blocked plate and incubated overnight at 4° C. The next day, wells were washed before the addition of detection substrate (TMB peroxidase). Plates were then read for absorbance at 450 nm on a Molecular Devices SpectraMax M5e Microplate Reader.
Compound-treated samples were normalized to samples treated with DMSO alone (no inhibition) and to samples treated with DAPT. IC50 values were calculated from values reported as percent of DMSO controls using nonlinear regression, based on a sigmoidal dose—response (variable slope) model. […] used for calculation.

With COc1nc(C2=NOC(C)C(c3cn(C)c4ncc(Cl)c(F)c34)N2)ccc1-n1cnc(C)c1 (single isomer, unassigned; (+)) [Example 62A, (+)-5-(5-chloro-4-fluoro-1-methyl-1H-pyrrolo [2,3-b]pyridin-3-yl)-3-(6-methoxy-5-(4-methyl-1H-imidazol-1-yl)pyridin-2-yl)-6-methyl-5,6-dihydro-4H-1,2,4-oxadiazine] as the compound, how does the pIC50 read?
The pIC50 was 7.50.

With COc1nc(C2=NOC(C3CC3)C(c3cn(C)c4nccc(F)c34)N2)ccc1-n1cnc(C)c1 (single isomer, unassigned; (+)) [Example 63A, (+)-6-cyclopropyl-5-(4-fluoro-1-methyl-1H-pyrrolo [2,3-b]pyridin-3-yl)-3-(6-methoxy-5-(4-methyl-1H-imidazol-1-yl)pyridin-2-yl)-5,6-dihydro-4H-1,2,4-oxadiazine] as the compound, how does the pIC50 read?
The pIC50 was 5.98.

With COc1nc(C2=NOCC(C)(c3cn(C)c4ccccc34)N2)ccc1-n1cnc(C)c1 (single isomer, unassigned; (+)) [Example 26A, (+)-3-[3-[6-methoxy-5-(4-methyl-1H-imidazol-1-yl)pyridin-2-yl]-5-methyl-5,6-dihydro-4H-1,2,4-oxadiazin-5-yl]-1-methyl-1H-indole] as the compound, how does the pIC50 read?
Its pIC50 is 7.32.

With COc1nc(C2=NOC(C)C(c3cn(C)c4cc(F)c(F)cc34)N2)ccc1-n1cnc(C)c1 (single isomer, unassigned; (+)) [Example 39A, (+)-5-(5,6-difluoro-1-methyl-1H-indol-3-yl)-3-(6-methoxy-5-(4-methyl-1H-imidazol-1-yl)pyridin-2-yl)-6-methyl-5,6-dihydro-4H-1,2,4-oxadiazine] as the compound, how does the pIC50 read?
Its pIC50 is 8.27.

With COc1nc(C2=NOC(C)C(c3cn(C)c4ncc(C5CC5)cc34)N2)ccc1-n1cnc(C)c1 (single isomer, unassigned; (-)) [Example 56C, (−)-5-(5-cyclopropyl-1-methyl-1H-pyrrolo [2,3-b]pyridin-3-yl)-3-(6-methoxy-5-(4-methyl-1H-imidazol-1-yl)pyridin-2-yl)-6-methyl-5,6-dihydro-4H-1,2,4-oxadiazine] as the compound, how does the pIC50 read?
Its pIC50 is 6.66.

COc1nc(C2=NOC(C)C(c3cn(C)c4cc(F)c(F)cc34)N2)ccc1-n1cnc(C)c1 (single isomer, unassigned; (-)) [Example 39C, (−)-5-(5,6-difluoro-1-methyl-1H-indol-3-yl)-3-(6-methoxy-5-(4-methyl-1H-imidazol-1-yl)pyridin-2-yl)-6-methyl-5,6-dihydro-4H-1,2,4-oxadiazine] was tested. Which pIC50 did it give?
The pIC50 was 6.14.

How did the pIC50 turn out when COc1nc(C2=NOC(C)C(c3cn(C)c4ncc(Cl)cc34)N2)ccc1-n1cnc(C)c1 (single isomer, unassigned; (+)) [Example 54D, (+)-5-(5-chloro-1-methyl-1H-pyrrolo [2,3-b]pyridin-3-yl)-3-(6-methoxy-5-(4-methyl-1H-imidazol-1-yl)pyridin-2-yl)-6-methyl-5,6-dihydro-4H-1,2,4-oxadiazine] was run?
Its pIC50 is 8.29.

How did the pIC50 turn out when COc1nc(C2=NOC(C)C(c3cccc(Cl)c3)N2)ccc1-c1ccnc(C)c1 (single isomer, unassigned; (-)) [Example 49A, (−)-5-(3-chlorophenyl)-3-(2-methoxy-2′-methyl-[3,4′-bipyridin]-6-yl)-6-methyl-5,6-dihydro-4H-1,2,4-oxadiazine] was run?
The pIC50 was 6.26.

COc1nc(C2=NOC(C)C(c3ccc(Cl)cc3)N2)ccc1-c1ccnc(C)c1 (single isomer, unassigned; (-)) [Example 48A, (−)-5-(4-chlorophenyl)-3-(2-methoxy-2′-methyl-[3,4′-bipyridin]-6-yl)-6-methyl-5,6-dihydro-4H-1,2,4-oxadiazine] was tested. Which pIC50 did it give?
The pIC50 was 6.36.

COc1nc(C2=NOCC(c3c4n(c5ccccc35)CCOC4)N2)ccc1-n1cnc(C)c1 (single isomer, unassigned; (+)) [Example 30B, (+)-10-(3-(6-methoxy-5-(4-methyl-1H-imidazol-1-yl)pyridin-2-yl)-5,6-dihydro-4H-1,2,4-oxadiazin-5-yl)-3,4-dihydro-1H-[1,4]oxazino[4,3-a]indole] was tested. Which pIC50 did it give?
The pIC50 was 7.77.

COc1nc(C2=NO[C@H](c3ccc(Cl)cc3)[C@H](C)N2)ccc1-n1cnc(C)c1 [Example 71A, (5S,6R)-6-(4-chlorophenyl)-3-(6-methoxy-5-(4-methyl-1H-imidazol-1-yl)pyridin-2-yl)-5-methyl-5,6-dihydro-4H-1,2,4-oxadiazine] was tested. Which pIC50 did it give?
Its pIC50 is 7.90.

COc1nc(C2=NOC(C)C(c3cn(C)c4ncc(C(F)(F)F)cc34)N2)ccc1-n1cnc(C)c1 (single isomer, unassigned; (+)) [44B or 45B, (+)-3-(6-methoxy-5-(4-methyl-1H-imidazol-1-yl)pyridin-2-yl)-6-methyl-5-(1-methyl-5-(trifluoromethyl)-1H-pyrrolo[2,3-b]pyridin-3-yl)-5,6-dihydro-4H-1,2,4-oxadiazine] was tested. Which pIC50 did it give?
Its pIC50 is 8.09.

With COc1nc(C2=NOC(C)C(c3cccc(Cl)c3)N2)ccc1-n1cnc(Cl)c1 (single isomer, unassigned; (+)) [Example 47B, (+)-3-(5-(4-chloro-1H-imidazol-1-yl)-6-methoxypyridin-2-yl)-5-(3-chlorophenyl)-6-methyl-5,6-dihydro-4H-1,2,4-oxadiazine] as the compound, how does the pIC50 read?
The pIC50 was 7.44.

How did the pIC50 turn out when COc1nc(C2=NOCC(c3c4n(c5ccccc35)CCOC4)N2)ccc1-n1cnc(C)c1 (single isomer, unassigned; (-)) [Example 30A, (−)-10-(3-(6-methoxy-5-(4-methyl-1H-imidazol-1-yl)pyridin-2-yl)-5,6-dihydro-4H-1,2,4-oxadiazin-5-yl)-3 ,4-dihydro-1H-[1,4]oxazino[4,3-a]indole] was run?
Its pIC50 is 6.49.

How did the pIC50 turn out when COc1nc(C2=NOC(C)C(c3cccc(Cl)c3)N2)ccc1-n1cnc(Cl)c1 (single isomer, unassigned; (-)) [Example 47A, (−)-3-(5-(4-chloro-1H-imidazol-1-yl)-6-methoxypyridin-2-yl)-5-(3-chlorophenyl)-6-methyl-5,6-dihydro-4H-1,2,4-oxadiazine] was run?
The pIC50 was under 5.52.

With COc1nc(C2=NOC(C)C(c3ccc(Cl)cc3)N2)ccc1-n1cnc(Cl)c1 (single isomer, unassigned; (+)) [Example 42B, (+)-3-(5-(4-chloro-1H-imidazol-1-yl)-6-methoxypyridin-2-yl)-5-(4-chlorophenyl)-6-methyl-5,6-dihydro-4H-1,2,4-oxadiazine] as the compound, how does the pIC50 read?
The pIC50 was 7.74.

COc1nc(C2=NOC(C)C(c3c4n(c5ccc(Cl)cc35)CCOC4)N2)ccc1-n1cnc(C)c1 (single isomer, unassigned; (-)) [Example 50C, (−)-8-chloro-10-(3-(6-methoxy-5-(4-methyl-1H-imidazol-1-yl)pyridin-2-yl)-6-methyl-5,6-dihydro-4H-1,2,4-oxadiazin-5-yl)-3,4-dihydro-1H-[1,4] oxazino [4,3-a] indole] was tested. Which pIC50 did it give?
Its pIC50 is 6.45.

COc1nc(C2=NOC(C)C(c3cccc(Cl)c3)N2)ccc1-n1cnc(C)c1 (single isomer, unassigned) [Example 41B, 5-(3-chlorophenyl)-3-(6-methoxy-5-(4-methyl-1H-imidazol-1-yl)pyridin-2-yl)-6-methyl-5,6-dihydro-4H-1,2,4-oxadiazine] was tested. Which pIC50 did it give?
The pIC50 was 7.85.

How did the pIC50 turn out when COc1nc(C2=NOC(C3CC3)C(c3cc4ccccc4o3)N2)ccc1-n1cnc(C)c1 (single isomer, unassigned; (+)) [Example 61A, (+)-5-(benzofuran-2-yl)-6-cyclopropyl-3-(6-methoxy-5-(4-methyl-1H-imidazol-1-yl)pyridin-2-yl)-5,6-dihydro-4H-1,2,4-oxadiazine] was run?
The pIC50 was 7.77.

COc1nc(C2=NOC(C)C(c3cn(C)c4ncc(F)c(F)c34)N2)ccc1-n1cnc(C)c1 (single isomer, unassigned; (+)) [Example 51D, (+)-5-(4,5-difluoro-1-methyl-1H-pyrrolo [2,3-b]pyridin-3-yl)-3-(6-methoxy-5-(4-methyl-1H-imidazol-1-yl)pyridin-2-yl)-6-methyl-5,6-dihydro-4H-1,2,4-oxadiazine] was tested. Which pIC50 did it give?
Its pIC50 is 7.16.

How did the pIC50 turn out when COc1nc(C2=NOC(C)C(c3cn(C)c4ncc(C5CC5)cc34)N2)ccc1-n1cnc(C)c1 (single isomer, unassigned; (-)) [Example 56B, (−)-5-(5-cyclopropyl-1-methyl-1H-pyrrolo [2,3-b]pyridin-3-yl)-3-(6-methoxy-5-(4-methyl-1H-imidazol-1-yl)pyridin-2-yl)-6-methyl-5,6-dihydro-4H-1,2,4-oxadiazine] was run?
Its pIC50 is 7.89.

With COc1nc(C2=NOC(C)C(c3cc4ccc(Cl)cc4o3)N2)ccc1-n1cnc(C)c1 (single isomer, unassigned) [Example 46C, 5-(6-chlorobenzofuran-2-yl)-3-(6-methoxy-5-(4-methyl-1H-imidazol-1-yl)pyridin-2-yl)-6-methyl-5,6-dihydro-4H-1,2,4-oxadiazine] as the compound, how does the pIC50 read?
Its pIC50 is 6.54.

With COc1nc(C2=NOC(C)C(c3cn(C)c4cc(F)c(Cl)cc34)N2)ccc1-n1cnc(C)c1 (single isomer, unassigned; (+)) [Example 21D, (+)-5-(5-chloro-6-fluoro-1-methyl-1H-indol-3-yl)-3-(6-methoxy-5-(4-methyl-1H-imidazol-1-yl)pyridin-2-yl)-6-methyl-5,6-dihydro-4H-1,2,4-oxadiazine] as the compound, how does the pIC50 read?
Its pIC50 is 8.70.

— patent US20170050980A1, “OXADIAZINE COMPOUNDS AND METHODS OF USE THEREOF” (FORUM Pharmaceuticals Inc., priority 2015, published 2017)
